Reference: ChEMBL document CHEMBL2331514, “Structure-based design and synthesis of novel pseudosaccharine derivatives as antiproliferative agents and kinase inhibitors” (Eur J Med Chem, 2013)

What was measured:
[1] = test system: SK-MEL-2; test: Cytotoxicity against human SK-MEL-2 cells assessed as growth inhibition at 10 uM after 48 hrs by SRB assay; format: functional; conditions: SK-MEL-2, 48 h, read-out: GI
[2] = test system: SF-295; test: Cytotoxicity against human SF295 cells assessed as growth inhibition at 10 uM after 48 hrs by SRB assay; format: functional; conditions: SF-295, 48 h, read-out: GI
[3] = test system: SK-MEL-28; test: Cytotoxicity against human SK-MEL-28 cells assessed as growth inhibition at 10 uM after 48 hrs by SRB assay; format: functional; conditions: SK-MEL-28, 48 h, read-out: GI
[4] = test system: HL-60(TB); test: Cytotoxicity against human HL-60(TB) cells assessed as growth inhibition at 10 uM after 48 hrs by SRB assay; format: functional; conditions: HL-60, 48 h, read-out: GI
[5] = test system: HOP-62; test: Cytotoxicity against human HOP62 cells assessed as growth inhibition at 10 uM after 48 hrs by SRB assay; format: functional; conditions: HOP-62, 48 h, read-out: GI
[6] = Cytotoxicity against human EKVX cells assessed as growth inhibition at 10 uM after 48 hrs by SRB assay; format: functional; conditions: read-out: GI
[7] = test system: SNB-75; test: Cytotoxicity against human SNB75 cells assessed as growth inhibition at 10 uM after 48 hrs by SRB assay; format: functional; conditions: SNB-75, 48 h, read-out: GI
[8] = test system: SN12C; test: Cytotoxicity against human SN12C cells assessed as growth inhibition at 10 uM after 48 hrs by SRB assay; format: functional; conditions: read-out: GI
[9] = test system: HCT-116; test: Cytotoxicity against human HCT116 cells assessed as growth inhibition at 10 uM after 48 hrs by SRB assay; format: functional; conditions: HCT-116, 48 h, read-out: GI
[10] = test system: HCC 2998; test: Cytotoxicity against human HCC2998 cells assessed as growth inhibition at 10 uM after 48 hrs by SRB assay; format: functional; conditions: HCC 2998, 48 h, read-out: GI
[11] = test system: NCI-H226; test: Cytotoxicity against human NCI-H226 cells assessed as growth inhibition at 10 uM after 48 hrs by SRB assay; format: functional; conditions: NCI-H226, 48 h, read-out: GI
[12] = test system: SR; test: Cytotoxicity against human SR cells assessed as growth inhibition at 10 uM after 48 hrs by SRB assay; format: functional; conditions: read-out: GI
[13] = test system: HT-29; test: Cytotoxicity against human HT-29 cells assessed as growth inhibition at 10 uM after 48 hrs by SRB assay; format: functional; conditions: HT-29, 48 h, read-out: GI
[14] = test system: M14; test: Cytotoxicity against human M14 cells assessed as growth inhibition at 10 uM after 48 hrs by SRB assay; format: functional; conditions: M14, 48 h, read-out: GI
[15] = test system: MDA-MB-468; test: Cytotoxicity against human MDA-MB-468 cells assessed as growth inhibition at 10 uM after 48 hrs by SRB assay; format: functional; conditions: MDA-MB-468, 48 h, read-out: GI
[16] = test system: CCRF-CEM; test: Cytotoxicity against human CCRF-CEM cells assessed as growth inhibition at 10 uM after 48 hrs by SRB assay; format: functional; conditions: read-out: GI
[17] = test system: A549; test: Cytotoxicity against human A549/ATCC cells assessed as growth inhibition at 10 uM after 48 hrs by SRB assay; format: functional; conditions: A549, 48 h, read-out: GI
[18] = test system: DU-145; test: Cytotoxicity against human DU145 cells assessed as growth inhibition at 10 uM after 48 hrs by SRB assay; format: functional; conditions: DU-145, 48 h, read-out: GI
[19] = test system: IGROV-1; test: Cytotoxicity against human IGROV1 cells assessed as growth inhibition at 10 uM after 48 hrs by SRB assay; format: functional; conditions: IGROV-1, 48 h, read-out: GI
[20] = test system: MOLT-4; test: Cytotoxicity against human MOLT4 cells assessed as growth inhibition at 10 uM after 48 hrs by SRB assay; format: functional; conditions: MOLT-4, 48 h, read-out: GI
[21] = Partition coefficient, log P of the compound; format: physicochemical; conditions: octanol/water

| Structure (SMILES) | inhibition of growth at 10 µM [1] [%] | inhibition of growth at 10 µM [2] [%] | inhibition of growth at 10 µM [3] [%] | inhibition of growth at 10 µM [4] [%] | inhibition of growth at 10 µM [5] [%] | inhibition of growth at 10 µM [6] [%] | inhibition of growth at 10 µM [7] [%] | inhibition of growth at 10 µM [8] [%] | inhibition of growth at 10 µM [9] [%] | inhibition of growth at 10 µM [10] [%] | inhibition of growth at 10 µM [11] [%] | inhibition of growth at 10 µM [12] [%] | inhibition of growth at 10 µM [13] [%] | inhibition of growth at 10 µM [14] [%] | inhibition of growth at 10 µM [15] [%] | inhibition of growth at 10 µM [16] [%] | inhibition of growth at 10 µM [17] [%] | inhibition of growth at 10 µM [18] [%] | inhibition of growth at 10 µM [19] [%] | inhibition of growth at 10 µM [20] [%] | further results |
| --- | --- | --- | --- | --- | --- | --- | --- | --- | --- | --- | --- | --- | --- | --- | --- | --- | --- | --- | --- | --- | --- |
| O=C(Nc1ccc(NC2=NS(=O)(=O)c3ccccc32)cc1)Nc1cccc(Br)c1 | 1 | 20 | 5 | 1 | 24 | -4 | 15 | 21 | 22 | 5 | 20 | 27 | 11 | 22 | 60 | 39 | 4 | 19 | -10 | 37 | logP [21]: 2.24 |
| O=C(Nc1ccccc1)Nc1ccc(NC2=NS(=O)(=O)c3ccccc32)cc1 | -14 | 1 | -10 | 5 | -11 | 0 | 19 | 0 | -6 | -7 | 10 | 3 | 1 | -3 | -11 | 5 | 3 | -1 | -14 | 4 | logP [21]: 2.23 |
| O=C(Nc1ccc(OC2=NS(=O)(=O)c3ccccc32)cc1)Nc1ccccc1Cl | -1 | 8 | -8 | 25 | -8 | -3 | 18 | 17 | 1 | -5 | 25 | 9 | 4 | 2 | 8 | 57 | 7 | 3 | 0 | 24 | logP [21]: 3.55 |
